Test results as given in patent US4393225A, “AI-77 Compounds and pharmaceutically acceptable salts thereof” (Asahi Kasei Kogyo Kabushiki Kaisha, priority 1979, dated 1983).
Like-named read-outs stand apart in the source and are kept apart here.

Test system: ulcer
Assay: Anti-ulcer test (restraint and water immersion ulcer in rats, i.p.)
Assay type: in vivo, Male Wistar rats
Details: Rattus norvegicus, ip, read-out: % Inhibition of Ulcer
Outline: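 Male Wistar rats (~150 g), fasted 24 h, dosed i.p. with compound in physiological saline; 1 h later restrained and immersed to xiphisternum in 21 °C water for 6 h. Stomachs examined microscopically, ulcers scored 0–3, and percent inhibition calculated.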

SMILES | inhibition in vivo at 25 mg/kg (25 mg/kg i.p.) [%] | inhibition in vivo at 25 mg/kg [%]
CCCCCCCCCCCCCCCCCC(=O)Oc1cccc2c1C(=O)OC(C(CC(C)C)NC(=O)C(O)C(O)C(N)CC(N)=O)C2 (centres unmarked) [VII-4-3] | 78 | –
COc1cccc2c1C(=O)OC(C(CC(C)C)NC(=O)C(O)C(O)C(N)CC(N)=O)C2 (centres unmarked) [VII-5-1] | 78 | –
CCOc1cccc2c1C(=O)OC(C(CC(C)C)NC(=O)C(O)C(O)C(N)CC(N)=O)C2 (centres unmarked) [VII-5-2] | 78 | –
CCCCNC(=O)CC(N)C(O)C(O)C(=O)NC(CC(C)C)C1Cc2cccc(OCC)c2C(=O)O1 (centres unmarked) [VII-5-3] | 78 | –
CCOc1cccc2c1C(=O)OC(C(CC(C)C)NC(=O)C(O)C(O)C(N)CC(=O)Nc1ccc(C)cc1)C2 (centres unmarked) [VII-5-4] | 78 | –
CCOc1cccc2c1C(=O)OC(C(CC(C)C)NC(=O)C(OC(C)=O)C(O)C(N)CC(N)=O)C2 (centres unmarked) [VII-6-1] | 66 | –
CCOc1cccc2c1C(=O)OC(C(CC(C)C)NC(=O)C(OC(=O)C(C)C)C(O)C(N)CC(N)=O)C2 (centres unmarked) [VII-6-2] | 66 | –
CCOc1cccc2c1C(=O)OC(C(CC(C)C)NC(=O)C(OC(=O)CC)C(O)C(N)CC(N)=O)C2 (centres unmarked) [VII-6-3] | 66 | –
CCCCOC(C(=O)NC(CC(C)C)C1Cc2cccc(OC)c2C(=O)O1)C(O)C(N)CC(N)=O (centres unmarked) [VII-7-1] | 89 | –
CCCCOc1cccc2c1C(=O)OC(C(CC(C)C)NC(=O)C(OCCCC)C(O)C(N)CC(N)=O)C2 (centres unmarked) [VII-7-2] | 72 | –
CCCCNC(=O)CC(N)C(O)C(OCCC)C(=O)NC(CC(C)C)C1Cc2cccc(OCC)c2C(=O)O1 (centres unmarked) [VII-7-4] | 66 | –
COC(C(=O)NC(CC(C)C)C1Cc2cccc(O)c2C(=O)O1)C(O)C(N)CC(N)=O (centres unmarked) [VII-8-1] | – | 89
CCOC(C(=O)NC(CC(C)C)C1Cc2cccc(O)c2C(=O)O1)C(O)C(N)CC(N)=O (centres unmarked) [VII-8-3] | 89 | –
CCNC(=O)CC(N)C(O)C(OC)C(=O)NC(CC(C)C)C1Cc2cccc(OC(=O)CC)c2C(=O)O1 (centres unmarked) [VII-9-1] | 66 | –
CCCCCCCCCCCCCCCCCC(=O)Oc1cccc2c1C(=O)OC(C(CC(C)C)NC(=O)C(OC)C(O)C(N)CC(N)=O)C2 (centres unmarked) [VII-9-2] | 56 | –
COC(C(=O)NC(CC(C)C)C1Cc2cccc(OC(C)=O)c2C(=O)O1)C(O)C(N)CC(N)=O (centres unmarked) [VII-9-3] | 72 | –
CCCC(=O)Oc1cccc2c1C(=O)OC(C(CC(C)C)NC(=O)C(OCC)C(O)C(N)CC(N)=O)C2 (centres unmarked) [VII-9-4] | 78 | –
CCCNC(CC(N)=O)C(O)C(O)C(=O)NC(CC(C)C)C1Cc2cccc(O)c2C(=O)O1 (centres unmarked) [VII-10-1] | 94 | –
CCCCCNC(CC(N)=O)C(O)C(O)C(=O)NC(CC(C)C)C1Cc2cccc(O)c2C(=O)O1 (centres unmarked) [VII-10-2] | – | 94
CCCCCCCCNC(CC(N)=O)C(O)C(O)C(=O)NC(CC(C)C)C1Cc2cccc(O)c2C(=O)O1 (centres unmarked) [VII-10-3] | 94 | –
CCCCNC(=O)CC(NCCCC)C(O)C(O)C(=O)NC(CC(C)C)C1Cc2cccc(O)c2C(=O)O1 (centres unmarked) [VII-10-4] | 72 | –
CCCCCCCCCCCCCCCCCCNC(CC(N)=O)C(O)C(O)C(=O)NC(CC(C)C)C1Cc2cccc(O)c2C(=O)O1 (centres unmarked) [VII-10-5] | 89 | –
CCNC(CC(N)=O)C(O)C(OC(C)=O)C(=O)NC(CC(C)C)C1Cc2cccc(O)c2C(=O)O1 (centres unmarked) [VII-11-1] | 72 | –
CCCCNC(CC(N)=O)C(O)C(OC(=O)CCC)C(=O)NC(CC(C)C)C1Cc2cccc(O)c2C(=O)O1 (centres unmarked) [VII-11-3] | – | 66
CCNC(CC(=O)NCCCl)C(O)C(OC(=O)CC)C(=O)NC(CC(C)C)C1Cc2cccc(O)c2C(=O)O1 (centres unmarked) [VII-11-4] | – | 56

SMILES | inhibition in vivo at 25 mg/kg (25 mg/kg i.p.) [%] | inhibition in vivo at 25 mg/kg [%]
CCNC(CC(N)=O)C(O)C(OC(=O)CC)C(=O)NC(CC(C)C)C1Cc2cccc(OC(=O)C(C)C)c2C(=O)O1 (centres unmarked) [VII-12-1] | 56 | –
CCNC(CC(N)=O)C(O)C(O)C(=O)NC(CC(C)C)C1Cc2cccc(OC(C)=O)c2C(=O)O1 (centres unmarked) [VII-13-1] | 83 | –
CC(=O)Oc1cccc2c1C(=O)OC(C(CC(C)C)NC(=O)C(O)C(O)C(CC(N)=O)NCC(C)C)C2 (centres unmarked) [VII-13-2] | 83 | –
CCNC(CC(N)=O)C(O)C(O)C(=O)NC(CC(C)C)C1Cc2cccc(OC(=O)CC)c2C(=O)O1 (centres unmarked) [VII-13-3] | 83 | –
CCCCOc1cccc2c1C(=O)OC(C(CC(C)C)NC(=O)C(O)C(O)C(CC(=O)NC)NCC)C2 (centres unmarked) [VII-14-1] | 72 | –
CCNC(CC(N)=O)C(O)C(O)C(=O)NC(CC(C)C)C1Cc2cccc(OC)c2C(=O)O1 (centres unmarked) [VII-14-2] | 83 | –
CCNC(=O)CC(NCC)C(O)C(OC(=O)CC)C(=O)NC(CC(C)C)C1Cc2cccc(OC)c2C(=O)O1 (centres unmarked) [VII-15-4] | 44 | –
CCNC(CC(N)=O)C(O)C(OC)C(=O)NC(CC(C)C)C1Cc2cccc(OCC)c2C(=O)O1 (centres unmarked) [VII-16-1] | – | 56
CCCCOc1cccc2c1C(=O)OC(C(CC(C)C)NC(=O)C(OC)C(O)C(CC(=O)NCC)NCC)C2 (centres unmarked) [VII-16-4] | 44 | –
CCCCOC(C(=O)NC(CC(C)C)C1Cc2cccc(O)c2C(=O)O1)C(O)C(CC(N)=O)NCC (centres unmarked) [VII-17-1] | 78 | –
CCCCCCCCCCCCCCCCCCNC(CC(N)=O)C(O)C(OCCCC)C(=O)NC(CC(C)C)C1Cc2cccc(O)c2C(=O)O1 (centres unmarked) [VII-17-2] | 56 | –
CCNC(CC(N)=O)C(O)C(OC)C(=O)NC(CC(C)C)C1Cc2cccc(O)c2C(=O)O1 (centres unmarked) [VII-17-3] | 89 | –
CCCCOC(C(=O)NC(CC(C)C)C1Cc2cccc(OC(C)=O)c2C(=O)O1)C(O)C(CC(N)=O)NCC (centres unmarked) [VII-18-1] | 66 | –
CCNC(CC(N)=O)C(O)C(OC)C(=O)NC(CC(C)C)C1Cc2cccc(OC(=O)C(C)C)c2C(=O)O1 (centres unmarked) [VII-18-3] | 56 | –
CNC(CC(N)=O)C(O)C(O)C(=O)NC(CC(C)C)C1Cc2cccc(O)c2C(=O)O1 (centres unmarked) [VII-19-1] | 100 | –
CNC(CC(N)=O)C(O)C(OC(C)=O)C(=O)NC(CC(C)C)C1Cc2cccc(O)c2C(=O)O1 (centres unmarked) [VII-20-1] | 89 | –
CNC(CC(N)=O)C(O)C(OC(=O)CC(C)C)C(=O)NC(CC(C)C)C1Cc2cccc(O)c2C(=O)O1 (centres unmarked) [VII-20-2] | 66 | –
CNC(CC(N)=O)C(O)C(OC(C)=O)C(=O)NC(CC(C)C)C1Cc2cccc(OC(C)=O)c2C(=O)O1 (centres unmarked) [VII-21-1] | 66 | –
CNC(CC(N)=O)C(O)C(O)C(=O)NC(CC(C)C)C1Cc2cccc(OC(C)=O)c2C(=O)O1 (centres unmarked) [VII-22-1] | 78 | –
CCOc1cccc2c1C(=O)OC(C(CC(C)C)NC(=O)C(O)C(O)C(CC(N)=O)NC)C2 (centres unmarked) [VII-23-1] | 89 | –
CCCCNC(=O)CC(NC)C(O)C(O)C(=O)NC(CC(C)C)C1Cc2cccc(OCC)c2C(=O)O1 (centres unmarked) [VII-23-2] | 66 | –
CNC(CC(N)=O)C(O)C(O)C(=O)NC(CC(C)C)C1Cc2cccc(OC)c2C(=O)O1 (centres unmarked) [VII-23-5] | 89 | –
CCOc1cccc2c1C(=O)OC(C(CC(C)C)NC(=O)C(OC(C)=O)C(O)C(CC(N)=O)NC)C2 (centres unmarked) [VII-24-1] | 66 | –
CCOc1cccc2c1C(=O)OC(C(CC(C)C)NC(=O)C(OC(=O)C(C)C)C(O)C(CC(N)=O)NC)C2 (centres unmarked) [VII-24-2] | 66 | –
CCCCOC(C(=O)NC(CC(C)C)C1Cc2cccc(OC)c2C(=O)O1)C(O)C(CC(N)=O)NC (centres unmarked) [VII-25-1] | 66 | –
